Source: patent US20240374667A1, “Prunella vulgaris extract and use thereof” (Clariant International Ltd, priority 2021, published 2024)

Legend:
Format in all cases: cell-based
Human hair follicles [1] = test: Hair follicle structure, HES staining; conditions: cortisol 100 μM alone, 5 days
Protocol: (§1) Human hair follicles were removed from a fresh scalp/face skin biopsy of a person. After the depilation, isolated follicles were selected by microscopic observation to select only ones in anagen phase. They were randomized and placed in supplemented William's E medium (Penicillin/Streptomycin, L-glutamine (2 mM), hydrocortisone (0.027 μM), sodium selenite (10 ng/ml), transferrin (10 μg/ml) and insulin (10 μg/ml) and indicated treatment (control, cortisol at 100 μM, PVE at 50 or 150 ppm in presence or not of cortisol). After overnight fixation in paraformaldehyde solution (MM France, Brignais, France), samples were dehydrated and impregnated in paraffin using a dehydration automat (STP120 ThermoScientific™ Waltham, MA, USA). Then, sections of […] were mounted on Superfrost® Gold slides before proceeding to Hematoxylin-eosin-saffron (HES) staining. Hematoxylin-eosin-saffron (HES) is a trichromatic coloration using nuclear, cytoplasmic and matrix colorants, usually used for the visualization of tissues.

Human hair follicles [2] = test: Growth of isolated human hair follicles under cortisol (ex vivo culture, 5 days); conditions: cortisol 100 μM alone, day 1 to day 5
Protocol: Human hair follicles were removed from a fresh scalp/face skin biopsy of a person. After the depilation, isolated follicles were selected by microscopic observation to select only ones in anagen phase. They were randomized and placed in supplemented William's E medium (Penicillin/Streptomycin, L-glutamine (2 mM), hydrocortisone (0.027 μM), sodium selenite (10 ng/ml), transferrin (10 μg/ml) and insulin (10 μg/ml) and indicated treatment (control, cortisol at 100 μM, PVE at 50 or 150 ppm in presence or not of cortisol). Follicles were cultured at 37° C. under 5% CO2 and a relative humidity >95%. Medium was changed at day 1 and 3. The growth of isolated follicles was monitored for 5 days by daily photography using a stereomicroscope device (Carl Zeiss, Microscopy, France). The length of each follicle was measured using ImageJ software.

Human hair follicles [3] = test: Hair follicle cell proliferation (Ki-67) and apoptosis (TUNEL) under cortisol; conditions: cortisol alone, five days, vs control
Protocol: Human hair follicles were removed from a fresh scalp/face skin biopsy of a person. After the depilation, isolated follicles were selected by microscopic observation to select only ones in anagen phase. They were randomized and placed in supplemented William's E medium (Penicillin/Streptomycin, L-glutamine (2 mM), hydrocortisone (0.027 μM), sodium selenite (10 ng/ml), transferrin (10 μg/ml) and insulin (10 μg/ml) and indicated treatment (control, cortisol at 100 μM, PVE at 50 or 150 ppm in presence or not of cortisol). To perform immunostaining, slide deparaffinization was manually conducted using successive baths of solvent. Heat-induced epitope retrieval was performed using the Dako Envision Flex solution (Agilent, Santa Clara, US). Ki-67 (dilution 1/500).Cell proliferation was studied by Ki-67 immunostainings realized on paraffin sections (mouse monoclonal anti-Ki-67, Dako™ M7240, Santa Clara, US), The apoptosis was studied by using click-iT® Plus Alexa 488 TUNEL assay (ThermoScientific™, C10617, Waltham, MA, USA) following supplier instructions. After TUNEL assay and Ki67 antibody incubation, slices were incubated one hour at room temperature with an Alexa 568 coupled secondary antibody (A11004, Thermo Fischer Scientific™, Waltham, MA, USA). Nuclei counterstain was done using Hoechst (Invitrogen, ref H3570) at 1/5000 for 5 minutes at RT. Slides were mounted in aqueous medium.

[4] = test system: Human sensory neurons derived from hiPS cells; test: CGRP release by sensory neurons after cortisol or histamine challenge (ELISA); conditions: for CGRP release by sensory neurons: stress molecule alone at 10 μM, 30 minutes of stimulation, vs control
Protocol: Human sensory neurons are derived from hiPS cells (human induced Pluripotent Stem cells). hiPS cells are obtained by transfecting human fibroblasts cells. Cells were plated in 96 wells plates coated by a thin layer of Matrigel® (Corning; ref: 354277; batch: 9238002) in a differentiation medium (M1). Cells were incubated at 37° C. and 5% CO2 for 6 days and culture medium was changed every 2 days. After 9 days of differentiation, medium M1 was replaced by a maturation medium for human sensory neurons (M2). Cells were incubated at 37° C. and 5% CO2 for 6 days and culture medium was changed every 2 days. […] H-2700; batch: 1069755) was added. […] Culture was incubated for 24 hours at 37° C. and 5% of CO2. After 2 or 24 hours of incubation, the culture plates were stimulated by cortisol (Sigma Aldrich; ref: H0888; batch: SLB[…]) or histamine, each at 10 μM (Tocris; ref: 3545; batch: 1A/18942). After 30 minutes of stimulation, supernatants were removed and stored at -80° C. The amount of CGRP (antibodies-online; ref: abx257902; batch: E2001551F) released in supernatant after 30 minutes of stimulation were dosed by ELISA and compared to non-treated control. All values were expressed as mean +/-s.e.mean.

Human hair follicles [5] = test: Hair follicle pigmentation, Masson's Fontana staining; conditions: cortisol alone, 5 days
Protocol: as §1, with “USA). The” for “USA).”, “to Masson's Fontana” for “to Hematoxylin-eosin-saffron (HES)”, “staining. This staining is used to visualize melanin granules. Melanin” for “staining. Hematoxylin-eosin-saffron (HES)”, “a non-lipid pigment, brown to black, present physiologically in hair, eyes,” for “a trichromatic coloration using nuclear, cytoplasmic”, “and skin.” for “and matrix colorants, usually used for the visualization of tissues.”

[6] = test system: hair follicles dermal papilla cells (HFDPCs); test: HFDPC proliferation under cortisone (WST test); conditions: cortisone 200 μM alone, 60 h
Protocol: (§2) 2.3. Evaluation of the ability of PVE to counteract the glucocorticoids-induced decrease proliferation of hair follicles cells and to restore the VEGF secretion HFDP cells were maintained in Follicle Dermal Papilla Cell Growth Medium (C-26501, PromoCell, Heidelberg, Germany) at 37° C., under 5%, CO2. Cells at passage 4 were plated in 24 well plate at 2×10^4 cells/well. HFDPCs at 60% confluence was pretreated with 5, 10 or 20 ppm of PVE for 2 h, and subsequently treated with 200 μM cortisone. After incubation for 60 h, cell culture supernatant was recovered, and secreted VEGF was measured using ELISA kit. For the cell proliferation assay, the WST test was used (EZ-Cytox, DogenBio, Korea). Absorbance was measured at 450 nm wavelength using microplate spectrophotometry.

[7] = test system: hair follicles dermal papilla cells (HFDPCs); test: VEGF secretion by HFDPC under cortisone (ELISA); conditions: cortisone 200 μM alone, 60 h
Protocol: as §2

[8] = test system: Human sensory neurons derived from hiPS cells; test: Oxytocin release by sensory neurons after cortisol or histamine challenge (ELISA); conditions: 2 h pre-incubation
Protocol: Human sensory neurons are derived from hiPS cells (human induced Pluripotent Stem cells). hiPS cells are obtained by transfecting human fibroblasts cells. Cells were plated in 96 wells plates coated by a thin layer of Matrigel® (Corning; ref: 354277; batch: 9238002) in a differentiation medium (M1). Cells were incubated at 37° C. and 5% CO2 for 6 days and culture medium was changed every 2 days.
After 9 days of differentiation, medium M1 was replaced by a maturation medium for human sensory neurons (M2). Cells were incubated at 37° C. and 5% CO2 for 6 days and culture medium was changed every 2 days. On day 18 of culture (24 hours of pre-incubation) or day 19 of culture (2 hours of pre-incubation,) the medium was removed, and fresh medium with PVE or reference compound β-endorphin (Bachem; ref: H-2700; batch: 1069755) was added. The following conditions were done: control medium, control medium containing PVE at 50, 100 or 150 ppm, control medium containing beta-endorphin at 10 μM. Culture was incubated for 24 hours at 37° C. and 5% of CO2. After 2 or 24 hours of incubation, the culture plates were stimulated by cortisol (Sigma Aldrich; ref: H0888; batch: SLBN5690V) or histamine, each at 10 μM (Tocris; ref: 3545; batch: 1A/18942). After 30 minutes of stimulation, supernatants were removed and stored at −80° C. […]

## C[C@]12CCC(=O)C=C1CC[C@@H]1[C@@H]2[C@@H](O)C[C@@]2(C)[C@H]1CC[C@]2(O)C(=O)CO [cortisol]
Human hair follicles [1]
  hair follicle structure (dermal sheath, hair matrix): dramatically altered
Human hair follicles [2]
  hair follicle growth (length): strongly reduced
Human hair follicles [3]
  apoptosis of hair follicle cells (TUNEL): induces apoptosis in cells
  hair follicle cell proliferation (Ki-67): reduced cell proliferation
[4]
  CGRP release by sensory neurons: strong increase of CGRP release
Human hair follicles [5]
  hair follicle pigmentation (melanin granules): almost all the melanin granules disappeared

## C[C@]12CCC(=O)C=C1CC[C@@H]1[C@@H]2C(=O)C[C@@]2(C)[C@H]1CC[C@]2(O)C(=O)CO [cortisone]
[6]
  HFDPCs proliferation: inhibits the HFDPCs proliferation
[7]
  VEGF secretion by HFDPC: reduced VEGF production

## NCCc1c[nH]cn1 [histamine]
[4]
  CGRP release by sensory neurons: strong increase of CGRP release

## β-endorphin (YGGFMTSEKSQTPLVTLFKNAIIKNAYKKGE; Beta-endorphin; UniProt P01189 237-267, looked up)
[4]; 2 h or 24 h pre-incubation, PVE 50, 100 or 150 ppm, beta-endorphin 10 μM, then cortisol 10 μM, 30 minutes
  CGRP release by sensory neurons (sensory neuron excitation): reduce the neuronal excitation at level similar to the control condition
[8]; then cortisol 10 μM challenge
  oxytocin release by sensory neurons: no effect on the oxytocin release
[8]; then histamine 10 μM challenge
  oxytocin release by sensory neurons: no effect on the oxytocin release
